US7879911B2 (priority 2007, dated 2011)

The compounds below were run against Lethal factor protease (Bacillus anthracis, UniProt P15917) (assay: biochemical). Details: LF (FRET) Ki^app.
Lethal factor protease, sequence (P15917 34-809 limits assumed): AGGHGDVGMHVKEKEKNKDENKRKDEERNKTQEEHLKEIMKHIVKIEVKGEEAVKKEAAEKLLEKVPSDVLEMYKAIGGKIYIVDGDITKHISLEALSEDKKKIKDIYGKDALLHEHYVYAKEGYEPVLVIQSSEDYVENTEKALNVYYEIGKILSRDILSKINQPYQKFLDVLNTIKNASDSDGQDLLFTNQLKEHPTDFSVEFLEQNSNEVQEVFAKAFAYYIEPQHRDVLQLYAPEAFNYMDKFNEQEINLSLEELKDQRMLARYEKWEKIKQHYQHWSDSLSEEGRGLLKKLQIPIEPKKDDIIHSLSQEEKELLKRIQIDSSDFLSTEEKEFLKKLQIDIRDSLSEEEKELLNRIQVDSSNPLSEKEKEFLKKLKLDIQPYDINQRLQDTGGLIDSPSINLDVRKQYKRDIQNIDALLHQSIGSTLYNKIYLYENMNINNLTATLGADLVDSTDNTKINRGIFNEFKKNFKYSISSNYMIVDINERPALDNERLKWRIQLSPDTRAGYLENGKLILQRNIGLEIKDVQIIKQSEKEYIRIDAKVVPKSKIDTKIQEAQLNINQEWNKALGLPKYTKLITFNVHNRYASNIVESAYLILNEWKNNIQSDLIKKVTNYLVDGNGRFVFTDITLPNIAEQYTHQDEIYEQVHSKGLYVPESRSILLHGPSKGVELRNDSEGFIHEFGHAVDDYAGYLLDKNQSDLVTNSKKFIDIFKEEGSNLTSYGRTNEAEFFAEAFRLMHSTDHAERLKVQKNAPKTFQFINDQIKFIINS
Compound `CCCCC(C(=O)NO)[S+]([O-])c1ccc(F)c(C)c1` (single isomer, unassigned) [Compound 167352, anti-2-(4-Fluoro-3-methyl-benzenesulfinyl)-hexanoic acid hydroxyamide] has a Ki of 67 µM.
Work on `CCC[C@@H](Oc1ccc(F)c(C)c1)C(=O)NO` [Compound 168090, (R)-2-(4-Fluoro-3-methyl-phenoxy)-pentanoic acid hydroxyamide] yielded a Ki of 3.7 µM.
In the case of `O=C(COc1ccc(Cl)cc1)NO` [Compound 168129, 2-(4-chlorophenoxy)-N-hydroxyacetamide], the Ki is reported as 83.9 µM.
`O=C(NO)[C@@H](C/C=C\COCc1ccccc1)Oc1ccc(F)c(Cl)c1` [Compound 168160, (R,Z)-6-(benzyloxy)-2-(3-chloro-4-fluorophenoxy)-N-hydroxyhex-4-enamide] showed a Ki of 1.25 µM.
In the case of `CCCCC(C(=O)NO)[S+]([O-])c1ccc(F)c(C)c1` (stereo not shown) [Compound 167316, 2-(4-Fluoro-3-methyl-benzenesulfinyl)-hexanoic acid hydroxyamide], the Ki is reported as 18 µM.
`Cc1cc(O[C@H](CCCCO)C(=O)NO)ccc1F` [Compound 168176, (R)-2-(4-fluoro-3-methylphenoxy)-N,6-dihydroxyhexanamide] showed a Ki of 1.78 µM.
`Cc1cc(O[C@H](CCCCNCC2CC3CCC2C3)C(=O)NO)ccc1F` (stereo partly shown) [Compound 168183] showed a Ki of 0.17 µM.
`Cc1cc(O[C@H](C/C=C/COCc2ccccc2)C(=O)NO)ccc1F` [Compound 168185] was tested, and the Ki was 0.77 µM.
`Cc1cc(O[C@H](CCCCNCc2ccco2)C(=O)NO)ccc1F` [Compound 168184] was tested, and the Ki was 0.75 µM.
Compound `CCCCC(C(=O)NO)S(=O)(=O)c1ccc(F)c(C)c1` (stereo not shown) [Compound 167304, 2-(4-Fluoro-3-methyl-benzenesulfonyl)-hexanoic acid hydroxyamide] has a Ki of 30 µM.
In the case of `Cc1cc(CNCCCC[C@@H](Oc2cc(C)c(F)c(C)c2)C(=O)NO)ccc1F` [Compound 168100, (R)-2-(4-fluoro-3,5-dimethylphenoxy)-6-(4-fluoro-3-methylbenzylamino)-N-hydroxyhexanamide], the Ki is reported as 0.58 µM.
`O=C(COc1ccc(F)c(Cl)c1)NO` [Compound 168127, 2-(3-chloro-4-fluorophenoxy)-N-hydroxyacetamide] was tested, and the Ki was 31.2 µM.
Work on `Cc1cc(O[C@H](CCCCNCc2cccc(-c3ccc(F)cc3)c2)C(=O)NO)ccc1F` [Compound 168178, (R)-2-(4-fluoro-3-methylphenoxy)-6-((4′-fluorobiphenyl-3-yl)methylamino)-N-hydroxyhexanamide] yielded a Ki of 0.13 µM.
In the case of `Cc1cc(CCCN(C)CC[C@@H](Oc2ccc(F)c(C)c2)C(=O)NO)ccc1F` [Compound 168142, (R)-2-(4-fluoro-3-methylphenoxy)-4-((3-(4-fluoro-3-methylphenyl)propyl)(methyl)amino)-N-hydroxybutanamide], the Ki is reported as 1.12 µM.
Compound `Cc1cc(COCCCC[C@@H](Oc2cc(C)c(F)c(C)c2)C(=O)NO)ccc1F` [Compound 168135, (R)-2-(4-fluoro-3,5-dimethylphenoxy)-6-(4-fluoro-3-methylbenzyloxy)-N-hydroxyhexanamide] has a Ki of 3.03 µM.
`O=C(NO)[C@@H](CCCCOCc1ccccc1)Oc1ccc(F)c(Cl)c1` [Compound 168187] showed a Ki of 1.07 µM.
For `Cc1cc(OCC(=O)NO)ccc1F` [Compound 167182, 2-(4-Fluoro-3-methyl-phenoxy)-N-hydroxy-acetamide], the Ki was 29.2 µM.
In the case of `CCCCC(Oc1ccc(F)c(C)c1)C(=O)NO` (stereo not shown) [Compound 167163, 2-(4-Fluoro-3-methyl-phenoxy)-hexanoic acid hydroxyamide], the Ki is reported as 5.5 µM.
For `Cc1cc(O[C@H](CCN2CCC[C@@H](CN3CCCCC3)C2)C(=O)NO)ccc1F` [Compound 168143, (R)-2-(4-fluoro-3-methylphenoxy)-N-hydroxy-4-((S)-3-(piperidin-1-ylmethyl)piperidin-1-yl)butanamide], the Ki was 1.67 µM.
For `Cc1cc(CNCCCC[C@@H](Oc2ccc(F)c(C)c2)C(=O)NO)ccc1F` [Compound 168097, (R)-6-(4-Fluoro-3-methylbenzylamino)-2-(4-fluoro-3-methylphenoxy)-N-hydroxyhexanamide], the Ki was 0.21 µM.
`O=C(COc1ccc(F)cc1)NO` [Compound 168128, 2-(4-fluorophenoxy)-N-hydroxyacetamide] showed a Ki of 61.1 µM.
`Cc1cc(O[C@H](CCO)C(=O)NO)ccc1F` [Compound 168093, (R)-2-(4-fluoro-3-methylphenoxy)-N,4-dihydroxybutanamide] was tested, and the Ki was 23.1 µM.
`Cc1cc(COCCCC[C@@H](Oc2ccc(F)c(C)c2)C(=O)NO)ccc1F` [Compound 168113, (R)-6-(4-Fluoro-3-methylbenzyloxy)-2-(4-fluoro-3-methylphenoxy)-N-hydroxyhexanamide] gave a Ki of 0.54 µM.
Work on `Cc1cc(OCC(=O)NO)cc(C)c1F` [Compound 168115, 2-(4-Fluoro-3,5-dimethyl-phenoxy)-N-hydroxy-acetamide] yielded a Ki of 2.52 µM.
`O=C(COc1ccc(F)c(F)c1)NO` [Compound 168130, 2-(3,4-difluorophenoxy)-N-hydroxyacetamide] showed a Ki of 26.2 µM.
In the case of `CCCCC(C(=O)NO)[S+]([O-])c1ccc(F)c(C)c1` (single isomer, unassigned) [Compound 167351, syn-2-(4-Fluoro-3-methyl-benzenesulfinyl)-hexanoic acid hydroxyamide], the Ki is reported as 10.3 µM.
For `Cc1cc(O[C@H](CCCCNCc2cccs2)C(=O)NO)ccc1F` [Compound 168177, (R)-2-(4-fluoro-3-methylphenoxy)-N-hydroxy-6-(thiophen-2-ylmethylamino)hexanamide], the Ki was 0.21 µM.
In the case of `CCCCC(Sc1ccc(F)c(C)c1)C(=O)NO` (stereo not shown) [Compound 167303, 2-(4-Fluoro-3-methyl-phenylsulfanyl)-hexanoic acid hydroxyamide], the Ki is reported as 2.5 µM.
